# Source: publication PMC7283364 (ACS infectious diseases, 2019)
# Where “and” joins values, the source holds several entries; their conditions need not be identical. Equal entries are not always repeated. Where two headings read alike, the source gives them in different places. Where a SMILES comes first, the peptide text is derived from it. The star is where a group is joined. Cbz = O=C(OCc1ccccc1)*
# Experiments:
# [1] = tested on: adult S. mansoni; assay: WormAssay quantitative motility assay of adult worms in culture; format: cell-based, Schistosoma mansoni; settings: 1 μM, mixed-sex adults
# [2] = tested on: adult S. mansoni; assay: Microscopic observation of phenotypic changes of adult worms in culture; format: cell-based, Schistosoma mansoni; settings: 1 μM; for phenotypic changes: 24 h; for phenotype viewed under the microscope: 72 h
# [3] = tested on: caspase activity in adult S. mansoni; assay: Caspase activity; format: cell-based, Schistosoma mansoni; settings: 1 μM, 24 h, Ac-DEVD-AFC
# [4] = tested on: S. mansoni proteasome β5 subunit; assay: Inhibition of proteasome activity; format: biochemical, Schistosoma mansoni; settings: 1 μM inhibitor added to lysate, Suc-LLVY-AMC, E-64 present
# [5] = biological target: Sm20S β1 subunit (Schistosoma mansoni, UniProt G4V926); assay: Sm20S β1 inhibition assay; format: biochemical; settings: for IC50: read-out: IC50 Sm20S β1, z-LLE-AMC
# [6] = biological target: Sm20S β2 subunit (Schistosoma mansoni, UniProt G4VSW3); assay: Sm20S β2 inhibition assay; format: biochemical; settings: for IC50: read-out: IC50 Sm20S β2, z-LRR-AMC
# [7] = biological target: Sm20S β5 subunit (Schistosoma mansoni, UniProt A0A5K4F079); assay: Sm20S β5 inhibition assay; format: biochemical
# [8] = biological target: human immunoproteasome (i20S) β2 subunit (Homo sapiens, UniProt P40306); assay: i20S β2 inhibition assay; format: biochemical
# [9] = biological target: human immunoproteasome (i20S) β5 subunit (Homo sapiens, UniProt P28062); assay: i20S β5 inhibition assay; format: biochemical; settings: for fold less potent towards i20S β5: compared with c20S and Sm20S β5
# [10] = tested on: HepG2 cells
# [11] = tested on: HepG2 cells; settings: cited from earlier work
# [12] = tested on: S. mansoni proteasome β5 subunit; assay: Proteasome inhibition in living worms exposed to inhibitors; format: cell-based, Schistosoma mansoni; settings: worms exposed to 1 μM for 24 h, washed, extracts assayed with Suc-LLVY-AMC
# [13] = biological target: human immunoproteasome (i20S) β1 subunit (Homo sapiens, UniProt P28065); assay: i20S β1 inhibition assay; format: biochemical; settings: read-out: IC50 i20S β1
# [14] = tested on: Sm20S β2 subunit; assay: Sm20S β2 inhibition assay; format: biochemical
# [15] = tested on: Schistosoma mansoni infectious larvae (cercariae); settings: cercariae pre-treated with 50 μM; cited from earlier work
SMILES,decrease in worm motility ([1]; 6 h) [%],phenotypic changes [2],phenotype viewed under the microscope [2],increase in caspase activity compared to the DMSO control [3],reduction of proteolytic activity in worm lysate [4] [%],IC50 [5] [nM],IC50 [6] [nM],fold less potent towards i20S β5 [9],decrease in worm motility ([1]; 24 h),decrease in endogenous proteasome (β5) activity in living worms [12],other results
CC(C)C[C@H](NC(=O)[C@H](Cc1ccccc1)NC(=O)c1cnccn1)B(O)O [bortezomib],45,same deleterious phenotypic changes previously noted for bortezomib,"relatively motionless, unable to extend or flex their bodies and darkened, and had detached from the surface of the well",7 fold,99,15,272,,,,IC50 [7]: 9 nM; potency for Sm20S β1 compared with β5 [7]: equal potency
CCCCCC(=O)N[C@H](C(=O)N[C@@H](CCCC)C(=O)N[C@@H](CC(C)C)C(=O)[C@@]1(C)CO1)C(C)C [analog 1],,,,,,,,at least 5 fold,,,difference in potency between c20S and Sm20S ([7]; all subunits): no difference in potency; fold less potent towards i20S β2 ([8]; compared with c20S and Sm20S β2): at least 5 fold; fold less cytotoxic to HepG2 cells than carmaphycin B [10]: 11 fold; EC50 [11]: 134 nM
CCCCCC(=O)N[C@H](C(=O)N[C@@H](CCS(C)(=O)=O)C(=O)N[C@@H](CC(C)C)C(=O)[C@@]1(C)CO1)C(C)C [carmaphycin B],,same deleterious phenotypic changes previously noted for bortezomib,,,,> 500,0.6,,at least 80%,at least 80%,"IC50 ([7]; read-out: IC50 Sm20S β5, Suc-LLVY-AMC): 9.8 nM; IC50 [13]: > 500 nM; IC50 ([8]; read-out: IC50 i20S β2): 62 nM; IC50 ([9]; read-out: IC50 i20S β5): < 5 nM"
CC(C)C[C@H](NC(=O)[C@H](CCc1ccccc1)NC(=O)CN1CCOCC1)C(=O)N[C@@H](Cc1ccccc1)C(=O)N[C@@H](CC(C)C)C(=O)[C@@]1(C)CO1 [carfilzomib],47,,phenotypic changes were similar to those observed for bortezomib,4.5 fold,100,> 500,48,,,84% and > 75%,fold less potent against Sm20S β1 compared to bortezomib [5]: more than 33 fold; fold more potent against Sm20S β2 compared to bortezomib [6]: 5.6 fold; fold more potent against Sm20S β5 compared to bortezomib [7]: 18 fold; selectivity for Sm20S β5 subunit over β1 [7]: ~1000 fold; selectivity for Sm20S β5 subunit over β2 [7]: approximately 100 fold
CCCCCC(=O)N[C@@H](Cc1ccccc1)C(=O)N[C@@H](CCCC)C(=O)N[C@@H](Cc1ccccc1)C(=O)[C@@]1(C)CO1 [analog 7],,,,,,,,at least 5 fold,,,fold more potent for Sm20S β2 relative to c20S [14]: 3.3 fold
CC(C)C[C@@H](C=O)NC(=O)[C@H](CC(C)C)NC(=O)[C@H](CC(C)C)NC(=O)OCc1ccccc1 [MG132] (Cbz-Leu-Leu-Leu-aldehyde),,,"appeared normal in shape, movement and color",not significantly different from the DMSO control,92,,,,did not alter motility,no effect on proteasome activity,reduction in parasite establishment compared to control-treated mice [15]: 96%
